Counter-ions that a name gives are not always drawn.
How the values were obtained:
[1] = test system: IPF lung fibroblasts; test: Collagen-1 expression in IPF lung fibroblasts (Western blot, densitometry); type: cell-based, human; settings: vs vehicle
Text: Since primary mesenchymal cells isolated from IPF lungs represent a heterogeneous population of both fibroblasts and myofibroblasts “(myo)fibroblasts”, the efficacy of DMF was evaluate on both TGF-beta-induced and established profibrogenic phenotypes of these cells. […]

[2] = test system: oxidative stress (ROS, oxidized glutathione, lipid peroxidation); test: Blood ROS, lung oxidized glutathione and lung lipid peroxidation in aged-injured mice; type: in vivo, mouse; settings: for blood ROS levels: aged-injured mice
Protocol: Oral-DMF (n=7); intranasal-DMF (n=6).
Oral-vehicle (n=5); oral-DMF (n=5); intranasal-vehicle (n=3); intranasal-DMF (n=4).
Oral-vehicle (n=5); oral-DMF, (n=5); intranasal-vehicle (n=4); intranasal-DMF (n=3).
(§1) At 3 weeks post-bleomycin administration, mice were randomly assigned to one of four treatment groups. Between 3-6 weeks post-injury, DMF or vehicle (sterile PBS) was administered daily by oral gavage (240 μg/dose in 150 μL total volume) (Table 1) using a gavage tube. In parallel, mice were anesthetized using isoflurane and administered DMF or vehicle (sterile PBS) daily by intranasal instillation (80 μg/dose in 50 μL total volume) (Table 1). The control animals received vehicle only. Dosing was based on the solubility of this compound in the vehicle in the total volume used for administration (DMF was dissolved in sterile PBS at 42° C. and sonicated for 50 min). Mice were monitored for body-weight changes and survival. Mice were removed from the study when greater than 20% weight loss was observed compared to pre-surgery (day 0) or lack of responsiveness to touch. At 6 weeks post-injury, mice were sacrificed by CO2 inhalation.
(§2) In summary, lung-targeted treatment with DMF via inhaled delivery (as compared to oral delivery) can more effectively rescue local Nrf2 expression levels and promote redox homeostasis in the lungs.

[3] = test system: aged mice with bleomycin-induced persistent lung fibrosis; test: Aging murine model of bleomycin-induced persistent lung fibrosis: reversal of established fibrosis; type: in vivo, mouse; settings: 3-6 weeks post-injury
Protocol: as §1, with “C57BL/6 aged (18 month) female mice received an intratracheal instillation of bleomycin (0.02875 U/mouse). DMF was administered daily by oral gavage (240 μg/150 μL in sterile PBS/mouse) or intranasal instillation (80 μg/50 μL in sterile PBS/mouse) from 3-6 weeks post-injury. Lung tissue was assessed by hematoxylin and eosin (H&E) staining for histopathology and Masson's trichrome blue staining for collagen. […] At 3” for “At 3”, “CO2 inhalation. This aging model of bleomycin-induced persistent lung fibrosis enables the evaluation of therapeutic agents for their efficacy in reversing age-dependent established fibrosis. […] Using the same injury model and treatment protocol, aged mice were administered DMF or vehicle daily via intranasal delivery from 3-6 weeks post-injury.” for “CO2 inhalation.”

[4] = test system: IPF lung fibroblasts; test: H2O2 production in IPF lung fibroblasts (Amplex Red assay); type: cell-based, human; settings: 24 h
Protocol: IPF lung fibroblasts were treated with DMF (1 μM) or vehicle (DMSO) followed by treatment TGF-b (2 ng/ml). H2O2 levels were evaluated at 24 h by Amplex™ Red assay.
Culture supernatant was evaluated for H2O2 levels at 24 h by Amplex™ Red assay.
Since primary mesenchymal cells isolated from IPF lungs represent a heterogeneous population of both fibroblasts and myofibroblasts “(myo)fibroblasts”, the efficacy of DMF was evaluate on both TGF-beta-induced and established profibrogenic phenotypes of these cells. To determine if DMF treatment can inhibit fibrogenic responses induced by TGF-beta, cells were pre-treated with DMF or vehicle followed by treatment with TGF-beta for 24 h.

[5] = test system: Nrf2; test: Lung Nrf2 expression in aged-injured mice (densitometric analysis); type: in vivo, mouse
Protocol: Oral-vehicle (n=7); oral-DMF (n=7); intranasal-vehicle (n=4); intranasal-DMF (n=4).
as §1, §2

[6] = test system: IPF lung fibroblasts; settings: sulforaphane treatment (Nrf2 activation); cited from earlier work
[7] = intranasal delivery, 80 μg/dose daily, vs vehicle or oral DMF
[8] = intranasal 80 μg/dose daily, vs vehicle and oral DMF
[9] = oral gavage 240 μg/dose daily, aged mice

Row | Structure (SMILES) | TGF-beta-induced expression of collagen-1 ([1]; DMF 1 μM pre-treatment, then TGF-b 2 ng/ml, 48 h) | production of collagen-1 (established pro-fibrotic phenotype) ([1]; DMF 1 μM, no TGF-beta, 24 h) | blood ROS levels ([2]; intranasal delivery, 80 μg/dose daily) | lung lipid peroxidation [2, 7] | lung oxidized glutathione levels [2, 7] | blood ROS levels ([2]; oral administration, 240 μg/dose daily) | resolution of age-dependent established lung fibrosis (histopathology) ([3]; intranasal 80 μg/dose daily, aged mice) | lung collagen deposition (Masson's trichrome) [3, 8] | lung collagen-1 expression levels [3, 8] | lung fibronectin expression levels [3, 8] | lung hydroxyproline levels [3, 8] | lung fibrosis compared with vehicle-treated mice [3, 9] | resolution of age-dependent established lung fibrosis [3, 9] | TGF-beta-induced production of ROS, specifically H2O2 ([4]; DMF 1 μM pre-treatment, then TGF-b 2 ng/ml, vs vehicle (DMSO)) | production of H2O2 (established pro-fibrotic phenotype) ([4]; DMF 1 μM, no TGF-beta, culture supernatant, vs vehicle) | lung Nrf2 expression levels ([5]; intranasal delivery, 80 μg/dose daily, aged-injured mice) | lung Nrf2 expression levels ([5]; oral administration, 240 μg/dose daily, aged mice with established fibrosis) | antioxidant responses in IPF lung fibroblasts [6] | dedifferentiation of IPF myofibroblast [6]
1 | COC(=O)/C=C/C(=O)OC [DMF, dimethyl fumarate] | inhibition | significantly inhibited | did not impact | significantly reduced | significantly reduced | reduced blood ROS levels | resulted in resolution | reduced collagen deposition | significantly decreased | significantly decreased | decreased lung hydroxyproline levels | indistinguishable from vehicle-treated mice | failed to promote the resolution | significantly reduced | significantly inhibited | significantly increased | failed to rescue | – | –
2 | C[S+]([O-])CCCCN=C=S (stereo not shown) [sulforaphane] | – | – | – | – | – | – | – | – | – | – | – | – | – | – | – | – | – | restored antioxidant responses | promoted dedifferentiation
